In patent US8252532B2 (University of Connecticut, priority 2006, dated 2012):

Assays:
Ovcar-3 cells = test: Apoptotic nuclei in Ovcar-3 cells (DAPI staining); type: cell-based, human; details: for effect on CDDP-induced apoptosis: simultaneous treatment with CDDP
Description: In order to assess the effects of CDDP, P4 and PGRMC1's role in regulating the viability of ovarian cancer cells, Ovcar-3 cells were used. Ovcar-3 cells were maintained in culture as described by Kim et al (23). Briefly, Ovcar-3 cells were cultured in RPMI-1640 medium (Invitrogen, Grand Island, N.Y.) supplemented with 10% fetal bovine serum (HyClone, Logan, Utah), 100 U/ml penicillin G, 100 ug/ml streptomycin (Invitrogen, Grand Island, N.Y.), at 37° C. in a humidified atmosphere of 5% CO2 incubator. The Ovcar-3 cells were cultured for 72 hours before each experiment.
PGRMC1 siRNA treatment was used to deplete PGRMC1 levels (28). In this protocol, PGRMC1 depletion was performed by transfecting PGRMC1 siRNA using siPORT NeoFX transfection protocol outlined by Ambion. Studies were conducted in which either scramble (control) siRNA (Cat#: AM4611) or one of three pre-designed human PGRMC1 siRNAs (Ambion siRNA ID#: 18430, 18340, 18248) were transfected at a concentration of 30 nM. Levels of PGRMC1 mRNA and protein were assessed by real-time PCR and western blot, respectively as previously described. In addition and immunocytochemical analysis confirmed that PGRMC1 siRNA (ID#: 18248) was an effective PGRMC1 siRNA. This siRNA targeted Exon 1 of PGRMC1 (forward, 5′-[…]tt and reverse, 5′-[…]tt). Based on this, Ovcar-3 cells were cultured for 3 days and then treated for 3 days with either scramble or PGRMC1 siRNA (ID#: 18248). The cells were then treated for 24 h with CDDP (15 μM) and P4 (1 μM) and observed apoptosis as described below.
Finally, a blocking antibody study was conducted as previously described (25). Ovcar-3 were plated and cultured for 3 days as previously described. The cells were then washed and cultured for 24 h with serum-supplemented containing CDDP (15 μM) and P4 (1 μM) and either rabbit IgG (20 μg/ml) or the antibody to PGRMC1 (20 μg/ml). After culture the cells were rinsed in Krebs/Hepes buffer and stained to detect apoptotic nuclei as described below.
Regardless of the experimental design, in situ DNA staining was used to identify apoptotic nuclei by adding DAPI directly to the culture medium at a final concentration of 2 μg/ml. The cultures were incubated for 10 min at 37° C. in the dark. After staining, the cells were observed under epi-fluorescent optics. Under these conditions only cells with condensed or fragmented nuclei were stained intensely with DAPI. The DAPI-stained cells also stained with YOPRO-1, a well-known nuclear stain that identifies apoptotic cells (19, 25, 28). These cells were considered to be apoptotic (25). At least 100 cells/culture well were counted and the percentage of apoptotic nuclei in each well determined. For the data shown in FIGS. 12 and 15, cells were selected randomly. In FIG. 6 the apoptotic status (i.e. DAPI staining; blue fluorescence) was determined for 100 transfected cells per well as indicated by their GFP (i.e. green) fluorescence.

PGRMC1 = PGRMC1 mRNA and protein levels in Ovcar-3 cells after siRNA (real-time PCR, western blot, immunocytochemistry); type: cell-based, human; details: 72 h treatment; vs scramble control
Description: Real Time PCR. Quantitative measurements of PGR and PGRMC1 mRNA were made on cDNA samples provided by OriGene. […] Primers were evaluated with NCBI blast to confirm product specificity and products were designed to cross intron/exon borders. Primers used were: PGR forward [NT] ID NO: 13) and reverse [NT] ID NO: 14) and PGRMC-1 forward [NT] ID NO: 15) and reverse [NT] ID NO: 16). Quantitative real time PCR was performed on the MyiQ Single-Color Real-Time PCR Detection System (Bio-Rad, Hercules, Calif.). Samples were resuspended in twenty-five μl of the iQ SyberGreen Supermix (Bio-Rad) containing appropriate primers. Relative gene expression was evaluated with Bio-Rad iQ5 software using the ΔCT method (24). Each gene was evaluated on two separate identical array plates, which were loaded with equal amounts of cDNA per well as described by the manufacturer. End products were also run on agarose gels to confirm product size. Immunohistochemistry and immunocytochemistry were also used to assess the localization of PGRMC1 in formalin-fixed paraffin-embedded tissue sections of ovarian cancers and Ovcar-3 cells, respectively. […] Levels of PGRMC1 mRNA and protein were assessed by real-time PCR and western blot, respectively as previously described. […]

[1] = tested on: human granulosa/luteal cells; test: Apoptotic nuclei in human granulosa/luteal cells after serum withdrawal (TUNEL, in situ DNA staining); type: cell-based
Description: After the oocytes were removed, follicular aspirates were pooled and centrifuged at 250×g for 10 minutes. The cell pellet was resuspended in serum-free culture medium, layered on HISTOPAQUE-1077 and centrifuged for 30 minutes at 400×g. After centrifugation, the opaque interface containing the granulosa/luteal cells was carefully aspirated and transferred into a 15 ml sterile conical centrifuge tube. The cells were then washed by resuspending the cells in 12 ml of PBS and centrifuging them at 250×g for 10 minutes. This was repeated two additional times. The cell pellet was then resuspended in 1 ml of 0.25% trypsin-EDTA solution and incubated for 5 minutes to dissociate the cells. After trypsinization, 5 ml of serum-supplemented medium was added and the cells were centrifuged at 250×g for 10 minutes. The cells were then resuspended in serum-supplemented medium, counted in a hemacytometer and resuspended to yield a final concentration 1 million cells/ml.
Plastic lab-tek slides (BD Bioscience, Bedford, Mass.), which had been previously coated with Growth Factor Reduced Matrigel Matrix (BD Bioscience, Bedford, Mass.), were plated at about 60,000 cells per well in 0.5 ml of serum-supplemented medium with 2 U/ml (IU) of hCG. The medium was changed after 24 hours to remove any remaining blood cells or non-attached granulosa/luteal cells and the cultures continued for two additional days. The cultures were then subjected to the various experimental treatments as outlined below.
Both TUNEL and in situ DNA staining were used to identify apoptotic nuclei. For the TUNEL assay human granulosa/luteal cells were cultured for 5 hours in serum-free medium and then fixed in 10% formalin. The cells were stained using the Apoptag Peroxidase In Situ kit staining according to manufacture's instructions (Chemicon, Temecula, Calif.). In situ DNA staining was done by adding hydroethidine directly to the culture medium at a final concentration of 3.5 μg/ml. The cultures were incubated for 15 minutes at room temperature in the dark. After staining, the cells observed under epi-fluorescent optics. Under these conditions only cells with condensed or fragmented nuclei were stained intensely with hydroethidine. These cells were considered to be apoptotic in accordance with prior publications in the field. At least 100 cells/culture well were counted and the percentage of apoptotic nuclei in each well determined.
Human granulosa/luteal cells were plated on lab tek slides and cultured for three days as previously described. […] After culture the cells were raised in Krebs/Hepes buffer and stained to detect apoptotic nuclei as taught by Engmann et al., J. of Clinical Endocrinology and Metabolism 91(12): 4962-4968 (2006). One hundred cells in each chamber were counted and the percentage of apoptotic nuclei determined as previously described.

## N.N.[Cl][Pt][Cl] [CDDP, cis-diamminedichloroplatinum(II)]
Ovcar-3 cells; 10% fetal bovine serum, FIG. 12B
  percentage of cells that undergo apoptosis (dose dependence): dose-dependent increase
Ovcar-3 cells; in the presence of serum, within 24 h
  percentage of cells in which apoptosis is induced: 40 to 60%

## PGRMC1 siRNA (ID#: 18248): Ambion human PGRMC1 siRNA targeting Exon 1, nucleotides 365-386; SEQ ID NO: 7 and 8 (chain 1 GGUGUUCGAUGUGACCAAATT; chain 2 UUUGGUCACAUCGAACACCTT; chemistry not given here)
Ovcar-3 cells; PGRMC1 depleted with siRNA, CDDP and P4
  enhancement of the killing effect of CDDP in the presence of P4: ≥ 50%
Ovcar-3 cells; siRNA 3 days, then 24 h CDDP (15 μM) and P4 (1 μM), p<0.05
  effect on P4's ability to inhibit CDDP-induced apoptosis: attenuated
PGRMC1
  PGRMC1 levels by immunocytochemical analysis: suppress PGRMC1 levels

## CC#C[C@]1(O)CC[C@H]2[C@@H]3CCC4=CC(=O)CCC4=C3[C@@H](c3ccc(N(C)C)cc3)C[C@@]21C [RU486]
[1]; 25 and 50 μM doses of RU486
  percentage of apoptotic nuclei: greater than 70%

## CC(=O)[C@H]1CC[C@H]2[C@@H]3CCC4=CC(=O)CC[C@]4(C)[C@H]3CC[C@]12C [progesterone, 4-Pregnene-3,20-dione]
[1]; 1 μM progesterone, IgG or IgY control
  effect on apoptosis due to serum-withdrawal in presence of IgG or IgY: suppressed apoptosis
[1]; all doses tested
  effect on apoptosis due to serum withdrawal: suppressed apoptosis
[1]; progesterone 1 μM, RU486 5 μM
  suppression of serum-withdrawal induced apoptosis in presence of RU486: still capable of suppressing serum-withdrawal induced apoptosis
[1]; progesterone 1 μM, RU486 25 and 50 μM
  ability to override the effect of RU486: could not override the effect of RU486
[1]; serum-free medium
  lowest effective dose suppressing apoptosis: 10 nM
Ovcar-3 cells; addition of P4 to CDDP in serum
  reduction of the killing effect of CDDP: about 40%
Ovcar-3 cells; serum withdrawal
  concentration of maximum effect on inhibition of apoptosis induced by serum withdrawal: ~1 µM
Ovcar-3 cells; serum-free media for 5 h, p<0.05
  effect on rate of apoptosis in serum-free media: attenuated
Ovcar-3 cells; 5 h of culture, p<0.05
  effect on CDDP-induced apoptosis: attenuated
Ovcar-3 cells; 24 h of culture, p<0.05
  effect on CDDP-induced apoptosis: attenuated
